Literature values, collected in EP2535049A1 (Proyecto de Biomedicina Cima, S.L., priority 2011, dated 2012).

Conditions: Kulkarni and Patil 2004; Forgue et al., 2006; cited from earlier work

CCCc1nc(C)c2c(=O)[nH]c(-c3cc(S(=O)(=O)N4CCN(CC)CC4)ccc3OCC)nn12 [vardenafil]
half-life in blood serum: 3.4 h
